Data from US11085056B2, “Transfection complexes and methods of using the same” (MOLECULAR TRANSFER, INC., priority 2015, dated 2021).

Tests used:
HeLa Cells [1] = experiment: Transfection of HeLa cells with DOTMA/SEQ ID NO: 72/peptide compared with Lipofectamine 2000; assay type: cell-based; conditions: fusogenic peptide 0.1 mg/mL
Description: (§1) Cells were plated to so that on the day of transfection the cells were 60-70% confluent in 96 well tissue culture plates. A DOMTA/DOPE Lipid solution (1:1 molar ratio) at 2 mg/mL in water were mixed with an equal volume of surface ligand peptides that had the nucleic acid binding moiety RRRRRRRRRRRR (SEQ ID NO: 109) covalently linked to the n terminus of each peptide during peptide synthesis. Peptides were at 2 mg/mL in water. The DOTMA/DOPE and the surface ligand peptide solution the transfection reagent was diluted 1 to 1 (v/v) in water. DOMTA/DOPE/PEPTIDE solutions were added to 0.1 mL of a plasmid DNA solution (EF1Alpha eGFP plasmid) at 5 μg/mL in OptiMEM. Lipofectamine 2000 was obtained from Life Technologies.
(§2) All solutions were at room temperature. A volume of 0.2 mL of a 5 μg/mL solution of DNA was aliquoted into each well of a non-tissue cultured treated plate. 4.0 μL of transfection reagents were added to DNA solutions respectively. The transfection reagent and DNA solution was mixed by pipetting up and down twice. Transfection complexes were formed for 10 minutes. After 10 minutes, 0.01 or 0.02 mL of the transfection complex was added to cells. HuVEC, HeLa, human adult keratinocytes, human primary adult fibroblast, and rat cortical neurons all respectively received 0.01 mL of the tramsfectopm complex. Human skeletal muscle cells, mouse C2C12 cells, Jurkat, and THP-1 cells received 0.02 mL of the transfection complex. Cells were incubated for 42 hours at 37° C. at 5% CO2. Plates were read on a fluorescent plate reader. Cells were also examined visually under a microscope to assess the extent of transfection (in terms of the percent of cells transfected) with a fluorescent microscope. Other modes of analysis, for example quantification with B-galactosidase or luciferase reports plasmids can also be used. […] Surface ligand that caused increase expression of GFP over the lipid DOTMA with no surface ligand were considered to enhance transfection or had higher % cells transfected were considered to enhance transfection. Peptides that gave greater than 2 fold enhancement are noted in bold and could be further optimized by adding different transfection enhancers or could be used with different cationic lipids or polymers.
The fusogenic peptide was added to the DOMTA/peptide formulation to achieve a final concentration of 0.1 mg/mL to see if transfection reagents were further enhanced by the addition of a fusogenic peptide and could provide higher transfection efficiency into HeLa cells and expression than the commercially available Lipofectamine 2000.

HuVec Cells = experiment: Transfection of HuVec cells with DOTMA/DOPE/peptide and eGFP plasmid, fluorescent plate reader; assay type: cell-based; conditions: DOTMA/DOPE 1:1 plus peptide with RRRRRRRRRRRR (SEQ ID NO: 109) at n terminus; EF1Alpha eGFP plasmid; 0.01 mL complex; 42 hours
Description: as §1, §2

Jurkat Cells = experiment: Transfection of Jurkat cells with DOTMA/DOPE/peptide and eGFP plasmid, fluorescent plate reader; assay type: cell-based; conditions: DOTMA/DOPE 1:1 plus peptide with RRRRRRRRRRRR (SEQ ID NO: 109) at n terminus; EF1Alpha eGFP plasmid; 0.02 mL complex; 42 hours
Description: as §1, §2

C2C12 Cells = experiment: Transfection of C2C12 cells with DOTMA/DOPE/peptide and eGFP plasmid, fluorescent plate reader; assay type: cell-based, mouse; conditions: DOTMA/DOPE 1:1 plus peptide with RRRRRRRRRRRR (SEQ ID NO: 109) at n terminus; EF1Alpha eGFP plasmid; 0.02 mL complex; 42 hours
Description: as §1, §2

some examined cell types = experiment: Transfection expression and % cells transfected over the no peptide control; assay type: cell-based; conditions: on some examined cell types
Description: as §1, §2

HeLa Cells [2] = experiment: Transfection of HeLa cells with DOTMA/DOPE/peptide and eGFP plasmid, fluorescent plate reader; assay type: cell-based; conditions: DOTMA/DOPE 1:1 plus peptide with RRRRRRRRRRRR (SEQ ID NO: 109) at n terminus; EF1Alpha eGFP plasmid; 0.01 mL complex; 42 hours
Description: as §1, §2

Human Fibroblast Cells = experiment: Transfection of human fibroblast cells with DOTMA/DOPE/peptide and eGFP plasmid, fluorescent plate reader; assay type: cell-based; conditions: DOTMA/DOPE 1:1 plus peptide with RRRRRRRRRRRR (SEQ ID NO: 109) at n terminus; EF1Alpha eGFP plasmid; 0.01 mL complex; 42 hours
Description: as §1, §2

NL-1 iPS Cells = experiment: Transfection of NL-1 iPS cells with DOTMA/DOPE/peptide and eGFP plasmid, fluorescent plate reader; assay type: cell-based; conditions: DOTMA/DOPE 1:1 plus peptide with RRRRRRRRRRRR (SEQ ID NO: 109) at n terminus; EF1Alpha eGFP plasmid; 42 hours
Description: as §1, §2

[3] = 0.1 μL of DOTMA/SEQ ID NO: 72/Peptide in well of a 96 well plate
[4] = 0.2 μL of DOTMA/SEQ ID NO: 72/Peptide in well of a 96 well plate
[5] = 0.3 μL of DOTMA/SEQ ID NO: 72/Peptide in well of a 96 well plate
[6] = 0.4 μL of DOTMA/SEQ ID NO: 72/Peptide in well of a 96 well plate

Row | Substance | RF (Relative Fluorescence), DOTMA/SEQ ID NO: 72/Peptide, HeLa Cells (HeLa Cells [1]; [3]) | RF (Relative Fluorescence), DOTMA/SEQ ID NO: 72/Peptide, HeLa Cells (HeLa Cells [1]; [4]) | RF (Relative Fluorescence), DOTMA/SEQ ID NO: 72/Peptide, HeLa Cells (HeLa Cells [1]; [5]) | RF (Relative Fluorescence), DOTMA/SEQ ID NO: 72/Peptide, HeLa Cells (HeLa Cells [1]; [6]) | RF (Relative Fluorescence) of Transfection of HuVec Cells (HuVec Cells) | RF (Relative Fluorescence) of Transfection of Jurkat Cells (Jurkat Cells) | RF (Relative Fluorescence) of Transfection of C2C12 Cells (C2C12 Cells) | transfection expression and the % cells transfected over the no peptide control (some examined cell types) | RF (Relative Fluorescence) of Transfection of HeLa Cells (HeLa Cells [2]) | RF (Relative Fluorescence) of Transfection of Human Fibroblast Cells (Human Fibroblast Cells) | RF (Relative Fluorescence) of Transfection of NL-1 iPS Cells (NL-1 iPS Cells)
1 | 348 (HQQDLGTAGSCLRKFSTM; Peptidic transfection agent) [compound 348] | 17413 | 18615 | 16164 | 15054 | 21214 | 15585 | 8625 | increased | 22289 | 11802 | 21645
2 | 336 (GEFYFDLRLKGDK; Peptidic transfection agent) [compound 336] | 14442 | 16702 | 13434 | 11334 | 5366 | 4813 | 9647 | increased | 25262 | 10449 | 14875
3 | 454 (TGLSCLQRFTTM; Peptidic transfection agent) [compound 454] | 34033 | 37099 | 27412 | 16023 | 13336 | 8224 | 9280 | increased | 34550 | 7568 | 18100
4 | 354 (SINNTAVMQRLT; Peptidic transfection agent) [compound 354] | – | – | – | – | 19284 | 16705 | 1912 | increased | 4403 | 4998 | 24043
5 | 216 (YRVRVTPKEKTGPMKE; Peptidic transfection agent) [compound 216] | – | – | – | – | 14693 | 3570 | 1001 | increased | 6181 | 3117 | 19626
6 | 332 (TWYKIAFQRNRK; Peptidic transfection agent) [compound 332] | – | – | – | – | 4221 | 3052 | 537 | increased | 9198 | 5178 | 8725
7 | 338 (GTPGPQGIA; Peptidic transfection agent) [compound 338] | – | – | – | – | 12000 | 4475 | 2290 | increased | 6241 | 5625 | 17288
8 | 345 (TAGSCLRKFSTMFLF; Peptidic transfection agent) [compound 345] | – | – | – | – | 2939 | 2462 | 6569 | increased | 8493 | 2816 | 7836
9 | 239 (KNSFMALYLSKGRLVFALG; Peptidic transfection agent) [compound 239] | – | – | – | – | 1404 | 2343 | 10620 | increased | 2717 | 4084 | 4129
10 | 256 (RQVFQVAYIIIKA; Peptidic transfection agent) [compound 256] | – | – | – | – | 3030 | 3322 | 3207 | increased | 2243 | 2656 | 1825
11 | 230 (WQPPRARI; Peptidic transfection agent) [compound 230] | – | – | – | – | 9067 | 10229 | 2606 | increased | 8944 | 11771 | 14524
12 | 352 (RIQNLLKITNLRIKFVK; Peptidic transfection agent) [compound 352] | – | – | – | – | 3130 | 3150 | 3324 | increased | 32126 | 3059 | 11628
13 | 327 (VAEIDGIEL; Peptidic transfection agent) [compound 327] | – | – | – | – | 21018 | 14546 | 2043 | increased | 5345 | 4662 | 31383
14 | 220 (ATETTITIS; Peptidic transfection agent) [compound 220] | – | – | – | – | 8737 | 6428 | 1470 | increased | 9398 | 4516 | 15892
